The source of these data is patent US11370794B2, “Toll-like receptor antagonist compounds and methods of use” (Dynavax Technologies Corporation, priority 2016, dated 2022).

One test addresses T1, human TLR8 (Homo sapiens, UniProt Q9NR97).
T1 construct: endogenous in cells; host or cells: primary human monocytes (CD14 microbeads) from buffy coats of healthy donors
T1 sequence (Q9NR97 27-1041): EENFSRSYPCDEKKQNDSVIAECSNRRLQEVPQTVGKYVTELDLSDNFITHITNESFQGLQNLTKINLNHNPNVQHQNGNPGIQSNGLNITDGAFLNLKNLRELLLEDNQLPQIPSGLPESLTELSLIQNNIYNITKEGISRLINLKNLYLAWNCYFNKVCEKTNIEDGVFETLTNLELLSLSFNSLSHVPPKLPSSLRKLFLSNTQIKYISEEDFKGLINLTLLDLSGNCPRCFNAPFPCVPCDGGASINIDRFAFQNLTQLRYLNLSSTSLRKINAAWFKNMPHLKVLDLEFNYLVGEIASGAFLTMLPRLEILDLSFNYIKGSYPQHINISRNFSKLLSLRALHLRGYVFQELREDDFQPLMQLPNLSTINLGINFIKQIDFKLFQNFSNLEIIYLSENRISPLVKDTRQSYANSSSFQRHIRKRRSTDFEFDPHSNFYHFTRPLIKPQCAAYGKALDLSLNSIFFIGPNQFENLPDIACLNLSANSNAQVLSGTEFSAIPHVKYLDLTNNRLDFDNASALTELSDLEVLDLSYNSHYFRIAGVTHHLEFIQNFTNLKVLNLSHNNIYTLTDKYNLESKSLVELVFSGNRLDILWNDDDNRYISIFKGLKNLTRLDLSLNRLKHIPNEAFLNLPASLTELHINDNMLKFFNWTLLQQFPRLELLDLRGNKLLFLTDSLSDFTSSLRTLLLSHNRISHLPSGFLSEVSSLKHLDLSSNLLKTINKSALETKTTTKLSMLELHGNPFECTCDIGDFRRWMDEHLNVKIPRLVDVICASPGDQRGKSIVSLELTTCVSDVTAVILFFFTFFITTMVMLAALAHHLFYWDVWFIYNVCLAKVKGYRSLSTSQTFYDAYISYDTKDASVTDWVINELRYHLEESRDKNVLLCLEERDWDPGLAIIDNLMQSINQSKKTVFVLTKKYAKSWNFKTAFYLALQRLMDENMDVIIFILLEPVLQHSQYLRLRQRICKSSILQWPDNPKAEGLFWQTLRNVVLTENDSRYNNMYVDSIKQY
In words: Inhibition of human TLR8 in human monocytes (TNF-alpha / IL-1 beta ELISA). Type of test: cell-based. The conditions noted are these: human monocytes, agonist ORN8L 100 μg/mL, 24 hours. The method, boiled down: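 Primary human monocytes from donor buffy coats (~200,000 cells/well) given serially diluted compound, then ORN8L RNA oligonucleotide agonist at 100 μg/mL final. After 24 h at 37 °C, supernatant TNF-alpha and/or IL-1 beta measured by ELISA; IC50 from the concentration-response of cytokine release.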
(In general: ELISA stands for enzyme-linked immunosorbent assay.)

A further test concerns the target T2, human TLR9 (Homo sapiens, UniProt Q9NR96).
T2 construct: endogenous in cells; host or cells: primary human B cells (CD19 microbeads) from buffy coats of healthy donors
T2 sequence (Q9NR96 26-1032): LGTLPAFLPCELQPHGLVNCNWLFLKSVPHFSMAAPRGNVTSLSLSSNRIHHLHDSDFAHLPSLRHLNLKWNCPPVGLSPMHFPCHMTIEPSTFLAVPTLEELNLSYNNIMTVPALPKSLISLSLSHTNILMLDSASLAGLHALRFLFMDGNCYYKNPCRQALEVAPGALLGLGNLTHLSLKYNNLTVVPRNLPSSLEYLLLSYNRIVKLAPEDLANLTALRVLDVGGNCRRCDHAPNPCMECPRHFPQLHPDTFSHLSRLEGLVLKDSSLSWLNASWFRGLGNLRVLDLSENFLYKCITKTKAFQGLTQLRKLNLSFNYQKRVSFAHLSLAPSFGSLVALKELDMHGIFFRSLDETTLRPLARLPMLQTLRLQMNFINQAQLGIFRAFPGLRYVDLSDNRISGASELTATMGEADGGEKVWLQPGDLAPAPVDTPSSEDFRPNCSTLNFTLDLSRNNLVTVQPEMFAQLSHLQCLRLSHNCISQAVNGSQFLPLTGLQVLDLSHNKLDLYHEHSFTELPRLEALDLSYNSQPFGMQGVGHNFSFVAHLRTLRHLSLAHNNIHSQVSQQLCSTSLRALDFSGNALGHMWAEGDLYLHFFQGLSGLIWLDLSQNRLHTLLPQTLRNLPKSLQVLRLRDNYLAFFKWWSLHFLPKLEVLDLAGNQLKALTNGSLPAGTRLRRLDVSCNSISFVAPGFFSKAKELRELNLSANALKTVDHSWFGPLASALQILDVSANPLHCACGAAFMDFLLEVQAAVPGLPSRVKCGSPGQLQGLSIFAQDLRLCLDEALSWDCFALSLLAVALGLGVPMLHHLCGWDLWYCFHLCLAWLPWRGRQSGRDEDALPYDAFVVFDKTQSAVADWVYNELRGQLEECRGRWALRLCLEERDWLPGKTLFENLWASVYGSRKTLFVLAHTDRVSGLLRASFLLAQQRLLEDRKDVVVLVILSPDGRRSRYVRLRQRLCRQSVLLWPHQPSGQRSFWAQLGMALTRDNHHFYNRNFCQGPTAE
In words: Inhibition of human TLR9 in human B cells (IL-6 ELISA). Type of test: cell-based. The note with it: for IC50: human B cells, agonist 1018 ISS 1 μM; for inhibits TLR9-dependent responses (in words): summary statement of the description. Summed up:
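Primary human B cells (CD19-isolated from donor buffy coats), ~300,000 per well, treated with compound (about 0.01–10 μM, some 0.001–30 μM) then 1 μM CpG oligonucleotide 1018 ISS. After 48 hours at 37° C, supernatant IL-6 measured by ELISA; IC50 from concentration-response of TLR9-dependent activity.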

Setting [1] is: TNF-alpha readout, read-out: Human TLR8 IC50 TNF-a.
The mark [2] stands for this setting: IL-6 readout, 48 hours, range about 0.01 to 10 μM, read-out: Human TLR9 IC50.
[3] abbreviates: IL-1 beta readout, read-out: Human TLR8 IC50 IL-1b.

Read-outs that look alike come from different tables or passages of the source.

Usually IC50 stands for the concentration that inhibits the measured activity by half. For `Cc1ccc(-n2cc3cnnc(N4CCC(CCC(=O)NCCN(C)C)CC4)c3n2)cc1` [compound 61, N-(2-(dimethylamino)ethyl)-3-(1-(2-(p-tolyl)-2H-pyrazolo[3,4-d]pyridazin-7-yl)piperidin-4-yl)propanamide], the IC50 is 4.85 µM at human TLR8 (setting [1]) and 9 nM on human TLR9 (setting [2]).
`Cc1ccc(-n2nc3c(N4CCC(C(=O)N5CCC(CN(C)C)C5)CC4)nnc(C)c3c2C)cc1` (centres unmarked) [compound 45, (1-(3,4-dimethyl-2-(p-tolyl)-2H-pyrazolo[3,4-d]pyridazin-7-yl)piperidin-4-yl)(3-((dimethylamino)methyl)pyrrolidin-1-yl)methanone]: the IC50 at human TLR8 (setting [1]) was at least 20 µM; on human TLR9 (IL-6, 48 hours, expanded dilution series about 0.001 to 30 μM, read-out: Human TLR9 IC50, expanded dilution series), 14 nM; at human TLR9 (setting [2]), 1 nM. Also, the “inhibits TLR9-dependent responses (in words)” value on human TLR9 is reported as “inhibit”.
On to `Cc1ccc(-n2nc3c(N4CCC(C(=O)NC5CCN(C)C5)CC4)nnc(C)c3c2C)cc1` (centres unmarked) [compound 17, 1-(3,4-dimethyl-2-(p-tolyl)-2H-pyrazolo[3,4-d]pyridazin-7-yl)-N-(1-methylpyrrolidin-3-yl)piperidine-4-carboxamide], for which the figures for the IC50 at human TLR8 (setting [3]), on human TLR8 (setting [1]) and at human TLR9 (setting [2]) were above 10 µM, above 10 µM and 83 nM, respectively.
`Cc1ccc(-n2nc3c(N4CCC(C(=O)N5CC6CN(C)CC6C5)CC4)nnc(C)c3c2C)cc1` (centres unmarked) [compound 72, (1-(3,4-dimethyl-2-(p-tolyl)-2H-pyrazolo[3,4-d]pyridazin-7-yl)piperidin-4-yl)(5-methylhexahydropyrrolo[3,4-c]pyrrol-2(1H)-yl)methano]: the 50% inhibitory concentration (IC50) at human TLR8 (setting [1]) stood at 9.17 µM; at human TLR9 (setting [2]), 12 nM.
The matching figures for `Cc1ccc(-n2nc3c(N4CCC(C(=O)NCCCN(C)C)CC4)nnc(Cl)c3c2C)cc1` [compound 36, 1-(4-chloro-3-methyl-2-(p-tolyl)-2H-pyrazolo[3,4-d]pyridazin-7-yl)-N-(3-(dimethylamino)propyl)piperidine-4-carboxamide]: 7.68 µM and 1150 nM.
With `Cc1ccc(-c2nc3c(N4CCC(C(=O)NCCCN(C)C)CC4)cccc3n2C)cc1` [Compound No. 53, N-(3-(dimethylamino)propyl)-1-(1-methyl-2-(p-tolyl)-1H-benzo[d]imidazol-4-yl)piperidine-4-carboxamide], the IC50 at human TLR8 (setting [1]) is at least 20 µM; on human TLR9 (setting [2]) it was 2230 nM.
In the case of `CCCCN(CC)CCNC(=O)C1CCN(c2nnc(C)c3c(C)n(-c4ccccc4)nc23)CC1` [25x, N-(2-(butyl(ethyl)amino)ethyl)-1-(3,4-dimethyl-2-phenyl-2H-pyrazolo[3,4-d]pyridazin-7-yl)piperidine-4-carboxamide], the IC50 on human TLR8 (setting [3]) stood at 4.54 µM; on human TLR8 (setting [1]), 4.85 µM; at human TLR9 (setting [2]), 41 nM. The “inhibits TLR9-dependent responses (in words)” value against human TLR9 is reported as “inhibit”.
`Cc1ccc(-n2nc3c(N4CCC(C(=O)NCCCc5ccccc5)CC4)nnc(C)c3c2C)cc1` [2-6]: the IC50 on human TLR8 (setting [3]) is above 10 µM; on human TLR8 (setting [1]) it was above 10 µM; at human TLR9 (setting [2]), above 10000 nM.
As for `Cc1ccc(-n2nc3c(N4CCC(C(=O)NCCCN5CCCc6ccccc65)CC4)nnc(C)c3c2C)cc1` [2-5], the IC50 at human TLR8 (setting [3]) is above 10 µM; at human TLR8 (setting [1]) it was above 10 µM; on human TLR9 (setting [2]), above 10000 nM.
As for `Cc1ccc(-n2cc3cnnc(N4CCC(C(=O)N5CCC(CN(C)C)C5)CC4)c3n2)cc1` (centres unmarked) [compound 60, (3-((dimethylamino)methyl)pyrrolidin-1-yl)(1-(2-(p-tolyl)-2H-pyrazol[3,4-d]pyridazin-7-yl)piperidin-4-yl)methanone], the 50% inhibitory concentration (IC50) on human TLR8 (setting [1]) amounted to 0.98 µM; at human TLR9 (setting [2]) it was 2 nM.
On to `Cc1ccc(-n2nc3c(N4CCC(C(=O)N5CCC(N(C)C)C5)CC4)nnc(C)c3c2C)cc1` (centres unmarked) [compound 44, (1-(3,4-dimethyl-2-(p-tolyl)-2H-pyrazolo[3,4-d]pyridazin-7-yl)piperidin-4-yl)(3-(dimethylamino)pyrrolidin-1-yl)methanone], for which the figures for the concentration for half-maximal inhibition (IC50) on human TLR8 (setting [1]) and on human TLR9 (setting [2]) were at least 20 µM and 202 nM, respectively.
